From patent publication US10315992B2, “Tetracyline compounds” (Tetraphase Pharmaceuticals, Inc., priority 2012, dated 2019)
≈ marks a conversion by molar mass, not a printed value. Read-outs that look alike come from different tables or passages of the source.

Key:
[1] = tested on: Enterococcus faecalis EF327 (wound isolate, tet(M)); experiment: MIC assay, EF327; assay type: cell-based
[2] = tested on: Pseudomonas aeruginosa PA669 (2009 tracheal aspirate isolate); experiment: MIC assay, PA669; assay type: cell-based
[3] = tested on: Escherichia coli EC107 (ATCC 25922); experiment: MIC assay, EC107; assay type: cell-based
[4] = tested on: Enterobacter cloacae EC108 (ATCC 13047); experiment: MIC assay, EC108; assay type: cell-based; conditions: ATCC13047, read-out: MIC ECI 108 13047
EC 880 ipxC = experiment: MIC assay, EC880; assay type: cell-based
Text: (§1) Minimum Inhibitory Concentration (MIC) Assay
(§2) The assays were run as follows.

EC 882 imp = experiment: MIC assay, EC882; assay type: cell-based
Text: as §1, §2

[5] = tested on: Pseudomonas aeruginosa PA555 (ATCC BAA-47, PAO1); experiment: MIC assay, PA555; assay type: cell-based
[6] = tested on: Proteus mirabilis PM385 (urine ESBL+ isolate); experiment: MIC assay, PM385; assay type: cell-based
[7] = tested on: Staphylococcus aureus SA101 (ATCC 29213, MSSA); experiment: MIC assay, SA101; assay type: cell-based
[8] = tested on: Streptococcus pneumoniae SP106 (ATCC 49619); experiment: MIC assay, SP106; assay type: cell-based; conditions: ATCC49619, read-out: MIC SP 106 49619
[9] = tested on: Acinetobacter baumannii AB110 (ATCC 19606); experiment: MIC assay, AB110; assay type: cell-based; conditions: ATCC19606, read-out: MIC AB 110 19606
[10] = tested on: Enterococcus faecalis EF159 (tet(M)); experiment: MIC assay, EF159; assay type: cell-based
[11] = tested on: Haemophilus influenzae HI262 (tetracycline-resistant, ampicillin-resistant); experiment: MIC assay, HI262; assay type: cell-based; conditions: read-out: MIC HI 262 33929
[12] = tested on: Escherichia coli EC878 (MG1655 tolC::kan); experiment: microbe, parasite or virus in culture; assay type: cell-based
[13] = tested on: Pseudomonas aeruginosa PA111 (ATCC 27853); experiment: MIC assay, PA111; assay type: cell-based; conditions: ATCC27853, read-out: MIC PA 111 27853
[14] = tested on: Acinetobacter baumannii AB250 (cystic fibrosis isolate, MDR); experiment: MIC assay, AB250; assay type: cell-based
[15] = tested on: Staphylococcus aureus SA100 (ATCC 13709, MSSA, Smith strain); experiment: MIC assay, SA100; assay type: cell-based; conditions: read-out: MIC SA 100 13709
[16] = tested on: Staphylococcus aureus SA158 (tetracycline-resistant tet(K)); experiment: MIC assay, SA158; assay type: cell-based
PA 884 35151 = experiment: MIC assay, PA884; conditions: Pseudomonas aeruginosa, read-out: MIC PA 884 351 51
Description: (§3) MICs were determined according to the Clinical and Laboratory Standards Institute (CLSI) guidances (e.g., CLSI. Performance standards for antimicrobial susceptibility testing; nineteenth information supplement. CLSI document M100-S19, CLSI, 940 West Valley Road, Suite 1400, Wayne, Pa. 19087-1898, USA, 2009). Briefly, frozen bacterial strains were thawed and subcultured onto Mueller Hinton Broth (MHB) or other appropriate media (Streptococcus requires blood and Haemophilus requires hemin and NAD). Following incubation overnight, the strains were subcultured onto Mueller Hinton Agar and again incubated overnight. […] Isolated colonies were selected to prepare a starting inoculum equivalent to a 0.5 McFarland standard. […] Test compounds were prepared by dilution in sterile water to a final concentration of 5.128 mg/mL. Antibiotics (stored frozen, thawed and used within 3 hours of thawing) and compounds were further diluted to the desired working concentrations.
(§4) The assays were run as follows. Fifty μL of MHB was added to wells 2-12 of a 96-well plate. One hundred μL of appropriately diluted antibiotics was added to well 1. Fifty μL of antibiotics was removed from well 1 and added to well 2 and the contents of well 2 mixed by pipetting up and down five times. Fifty μL of the mixture in well 2 was removed and added to well 3 and mixed as above. Serial dilutions were continued in the same manner through well 12. Fifty μL was removed from well 12 so that all contained 50 μL. Fifty μL of the working inoculum was then added to all test wells. A growth control well was prepared by adding 50 μL of working inoculum and 50 μL of MHB to an empty well. The plates were then incubated at 37° C. overnight, removed from the incubator and each well was read on a plate reading mirror. The lowest concentration (MIC) of test compound that inhibited the growth of the bacteria was recorded.

[17] = tested on: Enterococcus faecium EF404 (blood isolate, tet(M)); experiment: MIC assay, EF404; assay type: cell-based
[18] = tested on: Staphylococcus aureus SA191 (HA-MRSA, tetracycline-resistant); experiment: MIC assay, SA191; assay type: cell-based; conditions: MRSA, read-out: MIC SA 191
[19] = tested on: Escherichia coli EC155 (tet(A)); experiment: MIC assay, EC155; assay type: cell-based; conditions: Escherichia coli, read-out: MIC EC 155 tetA
[20] = tested on: Klebsiella pneumoniae KP457 (2009 ESBL+, CTX-M, OXA)
KP 194 7E+05 = experiment: MIC assay, KP194; conditions: Table 5
Description: as §3, §4

## CN(C)[C@@H]1C(O)=C(C(N)=O)C(=O)[C@@]2(O)C(O)=C3C(=O)c4c(O)cccc4C[C@H]3C[C@@H]12 [Sancycline, sancycline]
[1]; read-out: MIC EF 327 tet M
  MIC: 4 µg/mL (≈ 9.65 µM)
[1]; read-out: MIC EF 327 tetM
  MIC: 4 µg/mL (≈ 9.65 µM)
[2]
  MIC: 33 µg/mL (≈ 79.6 µM)
[2]; read-out: MIC PA 669
  MIC: 33 µg/mL (≈ 79.6 µM)
[3]; ATCC25922, read-out: MIC EC 07 25922, E. coli ATCC 25922, Table 7
  MIC: 8 µg/mL (≈ 19.3 µM)
[3]; ATCC25922, read-out: MIC EC 107 259 22, E. coli ATCC 25922, Table 6
  MIC: 8 µg/mL (≈ 19.3 µM)
[3]; ATCC25922, read-out: MIC EC 107 25922, E. coli ATCC 25922, Table 4
  MIC: 8 µg/mL (≈ 19.3 µM)
[3]; ATCC25922, read-out: MIC EC 107 25922, E. coli ATCC 25922, Table 5
  MIC: 8 µg/mL (≈ 19.3 µM)
[3]; ATCC25922, read-out: MIC EC 107 25922, control compounds
  MIC: 8 µg/mL (≈ 19.3 µM)
[3]; ATCC25922, read-out: MIC EC 107 25922, control compounds, numeric
  MIC: 8 µg/mL (≈ 19.3 µM)
[4]
  MIC: 8 µg/mL (≈ 19.3 µM)
EC 880 ipxC; Table 7, read-out: MIC EC 880 ipxC
  MIC: 0.25 µg/mL (≈ 0.603 µM)
EC 880 ipxC; read-out: MIC EC 880 ipx C
  MIC: 0.2 µg/mL (≈ 0.483 µM)
EC 882 imp; Table 7, read-out: MIC EC 882 imp
  MIC: 0.25 µg/mL (≈ 0.603 µM)
EC 882 imp; read-out: MIC EC 882 imp, Table 6
  MIC: 0.25 µg/mL (≈ 0.603 µM)
[5]
  MIC: 32 µg/mL (≈ 77.2 µM)
[5]; read-out: MIC PA5 55 BAA- 47
  MIC: 32 µg/mL (≈ 77.2 µM)
[5]; read-out: MIC PA 555
  MIC: 32 µg/mL (≈ 77.2 µM)
[5]; read-out: MIC PA 555 BAA- 47
  MIC: 32 µg/mL (≈ 77.2 µM)
[5]; read-out: MIC PA 555 BAA-47
  MIC: 32 µg/mL (≈ 77.2 µM)
[6]; read-out: MIC PM 385
  MIC: 8 µg/mL (≈ 19.3 µM)
[6]; read-out: MIC PM 385 CTX-M15
  MIC: 8 µg/mL (≈ 19.3 µM)
[7]; read-out: MIC SA 101 292 13, S. aureus ATCC 29213, MSSA, Table 6
  MIC: 0.5 µg/mL (≈ 1.21 µM)
[7]; read-out: MIC SA 101 29213, S. aureus ATCC 29213, MSSA, Table 4
  MIC: 0.5 µg/mL (≈ 1.21 µM)
[7]; read-out: MIC SA 101 29213, S. aureus ATCC 29213, MSSA, Table 5
  MIC: 0.5 µg/mL (≈ 1.21 µM)
[7]; read-out: MIC SA 101 29213, S. aureus ATCC 29213, MSSA, Table 7
  MIC: 0.5 µg/mL (≈ 1.21 µM)
[7]; read-out: MIC SA 101 29213, control compounds
  MIC: 0.5 µg/mL (≈ 1.21 µM)
[7]; read-out: MIC SA 101 29213, control compounds, numeric
  MIC: 0.5 µg/mL (≈ 1.21 µM)
[8]
  MIC: 0.25 µg/mL (≈ 0.603 µM)
[9]
  MIC: 0.25 µg/mL (≈ 0.603 µM)
[10]; read-out: MIC EF 159 tetM, E. faecalis tet(M), Table 4
  MIC: 8 µg/mL (≈ 19.3 µM)
[10]; read-out: MIC EF 159 tetM, E. faecalis tet(M), Table 5
  MIC: 8 µg/mL (≈ 19.3 µM)
[11]
  MIC: 0.5 µg/mL (≈ 1.21 µM)
[12]; MG1655, read-out: MIC EC 878 toIC, E. coli MG1655 tolC::kan, Table 6
  MIC: 1 µg/mL (≈ 2.41 µM)
[12]; MG1655, read-out: MIC EC 878 toIC, E. coli MG1655 tolC::kan, Table 7
  MIC: 1 µg/mL (≈ 2.41 µM)
[12]; MG1655, read-out: MIC EC 878 toIC, control compounds
  MIC: 1 µg/mL (≈ 2.41 µM)
[12]; MG1655, read-out: MIC EC 878 tolC, control compounds, numeric
  MIC: 1 µg/mL (≈ 2.41 µM)
[13]
  MIC: 33 µg/mL (≈ 79.6 µM)
[14]
  MIC: 16 µg/mL (≈ 38.6 µM)
[14]; read-out: MIC AB 250
  MIC: 16 µg/mL (≈ 38.6 µM)
[15]
  MIC: 1 µg/mL (≈ 2.41 µM)
[16]; read-out: MIC SA 158 tetK, S. aureus tet(K), Table 4
  MIC: 4 µg/mL (≈ 9.65 µM)
[16]; read-out: MIC SA 158 tetK, S. aureus tet(K), Table 5
  MIC: 4 µg/mL (≈ 9.65 µM)
[16]; read-out: MIC SA 158 tetK, S. aureus tet(K), Table 6
  MIC: 4 µg/mL (≈ 9.65 µM)
[16]; read-out: MIC SA 158 tetK, S. aureus tet(K), Table 7
  MIC: 4 µg/mL (≈ 9.65 µM)
[16]; read-out: MIC SA 158 tetK, control compounds
  MIC: 4 µg/mL (≈ 9.65 µM)
[16]; read-out: MIC SA 158 tetK, control compounds, numeric
  MIC: 4 µg/mL (≈ 9.65 µM)
PA 884 35151
  MIC: 4 µg/mL (≈ 9.65 µM)
[17]; read-out: MIC EF 404 tet M
  MIC: 4 µg/mL (≈ 9.65 µM)
[17]; read-out: MIC EF 404 tetM
  MIC: 4 µg/mL (≈ 9.65 µM)
[18]
  MIC: 8 µg/mL (≈ 19.3 µM)
[19]
  MIC: 32 µg/mL (≈ 77.2 µM)
[20]
  MIC KP 457: 8 µg/mL (≈ 19.3 µM)
  MIC KP 457 CTX- M-15: 8 µg/mL (≈ 19.3 µM)
  MIC KP 457 CTX-M-15: 8 µg/mL (≈ 19.3 µM)
KP 194 7E+05
  MIC KP 194 7E+05: 32 μg/mL
